According to PMC8427951, “Design, synthesis, and preliminary evaluation of a potential synthetic opioid rescue agent” (Journal of Biomedical Science, 2021):
“Also recorded” adds a separate entry of the source. Like-named read-outs stand apart in the source and are kept apart here.

Columns and labels:
[1] = test system: C57BL/6J mice; experiment: Locomotor activity assay, deficits caused by KOR agonist U50,488; type: in vivo
Procedure: These studies (in C57BL/6J mice from the Jackson Laboratory) focused on the effectiveness of 29 in preventing decreases in locomotor activity caused by the KOR agonist U50,488 (10 mg/kg, IP) over 90 min. This dose and duration of monitoring period was based on recently published studies. Mice were placed individually in rectangular transparent plastic cages (19.7 cm width × 41.3 cm length × 20.3 cm height) with bedding identical to that in the home cage. Each cage was in a photocell frame with an array of perpendicular photocell beams (SmartFrame; Kinder Scientific, Poway, CA). Beam breaks caused by the mouse were quantified through a computer interface. Mice were habituated to this apparatus for a 60-min session. Consecutive experiments in the same mice were separated by at least 72 h. Vehicle or 29 was injected 30 min prior to U50,488 (10 mg/kg). Immediately after the U50,488 injection, each mouse was placed in a locomotor activity cage for a 90-min period.
The locomotor activity data were analyzed as beam breaks over 15-min bins. Data were analyzed with 2-way repeated measures or mixed effects ANOVAs, followed by appropriate post-hoc tests (GraphPad Prism software).

[2] = Brain biodistribution study after IP dosing; type: in vivo, C57BL/6J mice; settings: male, C57BL/6J, mouse, 2 mg/kg
Procedure: (§1) Adult male C57BL/6J mice were purchased from Jackson Laboratories (Bar Harbor, ME). The animals were housed in polyethylene cages and given food and water ad libitum. Animals were administered 29 by intravenous, oral gavage or intraperitoneal (IV, PO or IP injection). Two groups of mice (n = 3/group) were sampled three times each via the saphenous vein. Whole blood samples were collected into heparinized pipet tips, centrifuged at 4300×g for 2 min to isolate plasma and transferred onto dry ice. Plasma samples were stored at − 80 °C until processing. Separately, for brain biodistribution studies, five mice per time-point were administered 29 via the IP route and a single blood sample was collected from each animal via intracardiac puncture prior to perfusing with ice-cold saline for 5 min before removing the brain. All animal procedures were conducted in accordance with The Guide for the Care and Use of Laboratory Animals (National Academic Press, 1996) and approved by the IACUC (Institutional Animal Care and Use Committee) at the University of Kentucky and at the Rockefeller University.
Brains were excised and sectioned at the sagittal plane. Half of the brain from each animal was homogenized (1:1, w/v) with phosphate buffered saline. […] Proteins were precipitated by addition of 80 µL of 0.1% formic acid. Samples were vortex mixed (10 s) and stored at − 20 °C for 20 min prior to centrifugation at 13,000×g for 15 min at 4 °C. The resulting supernatants were collected into amber HPLC vials fitted with 200 µL glass inserts and immediately analyzed for analyte content by LC/MS–MS.
(§2) For the analysis of total amount of 29 in the plasma samples, calibration curve was generated with 29 drug spiked to mouse blank plasma. Calibrators (0.25–1000 ng/mL) were prepared by the addition of 5 µL of appropriate spiking solution into 100 µL blank plasma followed by vortex mixing. Quality control samples (0.75, 25, 500, 850 ng/mL) were prepared from an independent second stock in a similar fashion. For the analysis of 29 in brain tissue samples, calibration curve was generated with 29 drug spiked to blank mouse brain tissue homogenate using a calibration curve (0.5–372 ng/mL) and quality control samples (0.75, 13.3, 25, 266 ng/mL). The limit of quantitation for plasma was 0.4 ng/mL and for brain tissue 1 ng/mL.
(§3) Analyte and internal standard contained in 4 µL sample injections were eluted from a Waters XBridge C18 (3.5µ, 4.6 × 150 mm; oven temp. 40 °C) analytical column with a 0.1% formic acid in water (Mobile Phase-A): 0.1% formic acid in acetonitrile (Mobile Phase-B) gradient. […] The 90% Mobile Phase-B was maintained for 2.5 min before returning to the initial 35% over a 0.1 min linear ramp. […] The total run time was 7.5 min. Positive-mode ESI Turbo V® source and MS gas, temperature and voltage potential settings were based on optimized parameters determined prior to analysis using infusions of 1000 ng/mL drug standards in 50:50 mobile phase mixture mixed with LC effluent for a total 0.6 mL/min flow rate. Flow-dependent parameters were: CUR = 35/ISV = 5500/TEM = 550/GS1 = 65/GS2 = 65/Horizontal probe position = 7/Vertical probe position = 0.5). […] Calibrators, quality control samples and experimental sample sequences consisted of single randomized experimental sample injections flanked by sets of blanks, and calibrators. A calibration curve was constructed by weighted (1/x^2) polynomial regression analysis of analyte concentration to analyte peak area using GraphPad Prism software (Ver 8.4.3).
(§4) All data sets were analyzed using Phoenix WinNonlin (Certara). A 2-compartment mammillary model was simultaneously fitted to all plasma concentrations obtained from intravenous, oral, and intraperitoneal administration of 29. The oral and intraperitoneal bioavailability was also estimated. Parameters were estimated using population modeling with quasi-random parameter estimation method (QRPEM). […]

[3] = Pharmacokinetic study, plasma (IV, PO, IP); type: in vivo, C57BL/6J mice; settings: for half-life / Tmax / bioavailability / AUC: plasma; for AUC: NCA
Procedure: as §1
Experimental plasma samples were thawed at 37 °C for 3 min and vortex mixed. […] Samples were vortex mixed, then treated with 4× volume (60 µL) of 0.1% formic acid in methanol to precipitate proteins. The samples were vortex mixed (5 s) then centrifuged at 13,000×g for 15 min at 4 °C. The resulting supernatants were collected into amber HPLC vials fitted with 200 µL glass inserts and immediately analyzed for analyte content by LC/MS–MS.
as §2, §3, §4

[4] = test system: C57BL/6J mice; experiment: Hot plate assay, oxycodone-induced thermal antinociception; type: in vivo
[5] = male, C57BL/6J, mouse, IP, 2 mg/kg
[6] = male, C57BL/6J, mouse, IV, 2 mg/kg
[7] = male, C57BL/6J, mouse, PO, 5 mg/kg

C=C1CC[C@@]2(OCCC)[C@H]3Cc4ccc(O)c5c4[C@@]2(CCN3CC2CC2)[C@H]1O5 [Compound 29]
blockade of locomotor effects of U50,488 ([1]; 29 0.1 mg/kg IP, 30 min before U50,488 10 mg/kg): ineffective; also recorded: did not cause any apparent blockade
blockade of locomotor depressant effects of U50,488 ([1]; 29 1 mg/kg IP, 30 min before U50,488 10 mg/kg): did block the locomotor depressant effects; also recorded: able to prevent locomotor deficits
effect on locomotor activity alone ([1]; 29 1 mg/kg alone, compared to a vehicle injection): did not cause significant effects on locomotor activity
half-life ([2]; brain, ip, IP dosing, brain, mice, read-out: apparent terminal half-life in the brain): ~80 min
Tmax ([2]; brain, ip, IP dosing, brain, read-out: Tmax in brain (converted)): ~20 min
half-life ([2]; brain, ip, IP, brain, read-out: Apparent half-life, t½ (converted)): 80.4 min
Tmax ([2]; brain, ip, IP, brain, read-out: Tmax): 19.2 min
Kp ([2]; brain, ip, read-out: partition coefficient, Kp,brain): 1.6
half-life ([2]; plasma, ip, IP dosing, plasma, read-out: apparent terminal half-life in plasma): 55 min
AUC ([2]; IP, brain, NCA): 0.634 µM·h
CL2 ([3]; 2-compartment model): 174 mL/min/kg
V2 ([3]; 2-compartment model): 6.07 L/kg
V ([3]; 2-compartment model fitted to IV, PO and IP plasma concentrations): 5.36 L/kg
FIP (bioavailability following IP administration) ([3]; 2-compartment model, IP 2 mg/kg, 2 mg/kg): 99.5%
Ka,ip ([3]; 2-compartment model, intraperitoneal absorption): 7.53 h⁻¹
Ka,po ([3]; 2-compartment model, oral absorption): 7.91 h⁻¹
time of measurable plasma concentrations ([3]; IP dosing): at least 6 h
time plasma concentrations were above the lower quantitation limit ([3]; following IV and PO dosing): 2 h
half-life ([3]; male, C57BL/6J, mouse, intraperitoneal, 2 mg/kg, mice, read-out: plasma half-life (converted)): 54 min
clearance ([3]; male, C57BL/6J, mouse, intraperitoneal, 2-compartment model fitted to IV, PO and IP plasma concentrations): 202 mL/min/kg
Tmax ([3]; male, C57BL/6J, mouse, intraperitoneal, PO and IP administration): ≤ 10 min
half-life ([3]; male, C57BL/6J, mouse, intravenous, oral, intraperitoneal, mice, read-out: plasma half-life (converted)): 36 to 60 min
bioavailability ([3]; male, C57BL/6J, mouse, ip, 2 mg/kg, 2-compartment model, IP 2 mg/kg, read-out: FIP (bioavailability following IP administration)): ~100%
bioavailability ([3]; male, C57BL/6J, mouse, po, 5 mg/kg, 2-compartment model, PO 5 mg/kg, read-out: Fpo (oral bioavailability)): ~6.6%
Tmax [3, 5]: 7.2 min
AUC [3, 5]: 0.397 µM·h
half-life ([3]; male, C57BL/6J, mouse, IP, 2 mg/kg, read-out: Apparent half-life, t½ (converted)): 56.4 min
Tmax [3, 6]: 4.8 min
AUC [3, 6]: 0.207 µM·h
half-life ([3]; male, C57BL/6J, mouse, IV, 2 mg/kg, read-out: Apparent half-life, t½ (converted)): 34.8 min
Tmax [3, 7]: 6 min
AUC [3, 7]: 0.064 µM·h
half-life ([3]; male, C57BL/6J, mouse, PO, 5 mg/kg, read-out: Apparent half-life, t½ (converted)): 59.4 min
duration of MOR antagonist action (lower bound) ([4]; 0.1 mg/kg IP): at least 240 min
duration of action (upper bound) ([4]; 0.1 mg/kg IP): less than 24 h
prevention of oxycodone-induced antinociception ([4]; 29 0.1 mg/kg IP, 30 min before oxycodone 5.6 mg/kg IP): fully effective; also recorded: complete prevention
prevention of peak antinociceptive effects of oxycodone (time course) ([4]; 29 0.1 mg/kg IP, pretreatment 15, 30, 120 and 240 min before oxycodone 5.6 mg/kg, measured 15 min after oxycodone): significantly prevent
prevention of oxycodone-induced antinociception (dose-dependence) ([4]; 29 0.01–0.1 mg/kg IP, 30 min before oxycodone 5.6 mg/kg IP): dose-dependently; also recorded: dose-dependent prevention
onset of antagonist action ([4]; after IP injection, 0.1 mg/kg): ≤ 15 min

COc1ccc2c3c1O[C@H]1C(=O)CC[C@@]4(O)[C@@H](C2)N(C)CC[C@]314 [Oxycodone, oxycodone, reference compound]
time of peak effects after injection ([4]; oxycodone 5.6 mg/kg IP): 15 min
antinociceptive effect ([4]; oxycodone 5.6 mg/kg IP, 30 min after vehicle pretreatment): near-maximal antinociceptive effect
